In ChEMBL document CHEMBL1201862, “PubChem BioAssay data set” (2004):
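Exposure lasted 48 hours, with cells grown in 96-well plates and compounds tested at five concentrations. At the GI50, growth is halved.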 Calls of active or inactive are those of the source. No stated cut-off is given here; in the data, active = GI50 up to about 1.1 µM and inactive = higher.

Assays:
Assay in all cases: inhibition of tumour cell growth, NCI panel, 48 h
HOP-62 = test system: HOP-62
SN12C = test system: SN12C
SK-MEL-28 = test system: SK-MEL-28
HCT-15 = test system: HCT-15
Malme-3M = test system: Malme-3M
BT-549 = test system: BT-549
OVCAR-4 = test system: OVCAR-4
SK-MEL-5 = test system: SK-MEL-5
DU-145 = test system: DU-145
MCF7 = test system: MCF7
CCRF-CEM = test system: CCRF-CEM
KM12 = test system: KM12
HCT-116 = test system: HCT-116
RXF 393 = test system: RXF 393
NCI-H522 = test system: NCI-H522
COLO 205 = test system: COLO 205
HCC 2998 = test system: HCC 2998
SF-295 = test system: SF-295
UO-31 = test system: UO-31

Structure (SMILES)	GI50 (HOP-62)	GI50 (SN12C)	GI50 (SK-MEL-28)	GI50 (HCT-15)	GI50 (Malme-3M)	GI50 (BT-549)	GI50 (OVCAR-4)	GI50 (SK-MEL-5)	GI50 (DU-145)	GI50 (MCF7)	GI50 (CCRF-CEM)	GI50 (KM12)	GI50 (HCT-116)	GI50 (RXF 393)	GI50 (NCI-H522)	GI50 (COLO 205)	GI50 (HCC 2998)	GI50 (SF-295)	GI50 (UO-31)
Cc1cc(=O)nc(Sc2ccc([N+](=O)[O-])cc2[N+](=O)[O-])[nH]1	24.5 µM (inactive)	10.8 µM (inactive)	20 µM (inactive)	14.2 µM	17.3 µM (inactive)	12.8 µM (inactive)	> 39.4 µM (inactive)	1.75 µM (inactive)	17.2 µM (inactive)	14.4 µM (inactive)	0.822 µM (active)	22.2 µM (inactive)	10.2 µM (inactive)	12.9 µM (inactive)	7.23 µM (inactive)	4.65 µM (inactive)	16.3 µM (inactive)	> 50.5 µM (inactive)	17 µM (inactive)
COC(=O)C1=C(C(=O)OC)SC2(S1)C(C(=O)OC)=C(C(=O)OC)Sc1c2ssc1=O	1.83 µM (inactive)	1.19 µM (inactive)	1.46 µM (inactive)	0.369 µM	0.61 µM (active)	1.5 µM (inactive)	1.22 µM (inactive)	1.21 µM (inactive)	0.877 µM (active)	1.26 µM (inactive)	0.076 µM (active)	4.78 µM (inactive)	0.459 µM (active)	1.08 µM (active)	0.177 µM (active)	0.524 µM (active)	1.31 µM (inactive)	11.4 µM (inactive)	1.63 µM (inactive)
Cc1c2cc[n+](C)c(C)c2cc2c1[nH]c1ccccc12	3.16 µM (inactive)	0.627 µM (active)	5.41 µM (inactive)	> 100 µM	2.72 µM (inactive)	2.44 µM (inactive)	5.43 µM (inactive)	2.44 µM (inactive)	10.7 µM (inactive)	5.74 µM (inactive)	6.9 µM (inactive)	2.65 µM (inactive)	16.1 µM (inactive)	38.7 µM (inactive)	2.86 µM (inactive)	1.57 µM (inactive)	7.78 µM (inactive)	2.27 µM (inactive)	67.6 µM (inactive)
O=C(CCCN1CCC(Nc2ccc(F)cc2)(c2nnnn2C2CCCCC2)CC1)c1ccc(F)cc1	16.9 µM (inactive)	31.5 µM (inactive)	16.2 µM (inactive)	15.2 µM	29.2 µM (inactive)	16.5 µM (inactive)	12.9 µM (inactive)	20.7 µM (inactive)	14.5 µM (inactive)	17.8 µM (inactive)	7.1 µM (inactive)	3.52 µM (inactive)	13.2 µM (inactive)	12.6 µM (inactive)	16.3 µM (inactive)	14.3 µM (inactive)	16.3 µM (inactive)	18.3 µM (inactive)	14.1 µM (inactive)
C=C(C)C12CC3CC/C(=N/O)C(C1)C3(N1CCOCC1)C/C2=N/O (centres undefined)	> 100 µM (inactive)	> 100 µM (inactive)	> 100 µM (inactive)	> 100 µM	> 100 µM (inactive)	> 100 µM (inactive)	> 100 µM (inactive)	> 100 µM (inactive)	> 100 µM (inactive)	> 100 µM (inactive)	> 100 µM (inactive)	> 100 µM (inactive)	> 100 µM (inactive)	> 100 µM (inactive)	> 100 µM (inactive)	> 100 µM (inactive)	> 100 µM (inactive)	> 100 µM (inactive)	> 100 µM (inactive)
COc1ccc(/N=N/C(=O)NC(Cc2ccccc2)C(=O)O)cc1 (centres undefined)	> 100 µM (inactive)	> 100 µM (inactive)	> 100 µM (inactive)	> 100 µM	> 100 µM (inactive)	> 100 µM (inactive)	> 100 µM (inactive)	> 100 µM (inactive)	> 100 µM (inactive)	> 100 µM (inactive)	> 100 µM (inactive)	> 100 µM (inactive)	> 100 µM (inactive)	> 100 µM (inactive)	> 100 µM (inactive)	> 100 µM (inactive)	> 100 µM (inactive)	> 100 µM (inactive)	> 100 µM (inactive)
C=C1CC2(CC(c3ccccc3OC)OC(c3ccccc3OC)C2)OC1=O (centres undefined)	13.6 µM (inactive)	1.97 µM (inactive)	1.45 µM (inactive)	2.28 µM	1.72 µM (inactive)	1.64 µM (inactive)	4.35 µM (inactive)	2.58 µM (inactive)	7.8 µM (inactive)	1.67 µM (inactive)	1.71 µM (inactive)	2.27 µM (inactive)	1.78 µM (inactive)	1.81 µM (inactive)	1.5 µM (inactive)	2.36 µM (inactive)	2.49 µM (inactive)	7.38 µM (inactive)	1.52 µM (inactive)
O=C1c2ccccc2C(=O)N1C(=S)c1ccccc1	> 100 µM (inactive)	> 100 µM (inactive)	> 100 µM (inactive)	> 100 µM	> 100 µM (inactive)	> 100 µM (inactive)	> 100 µM (inactive)	> 100 µM (inactive)	> 100 µM (inactive)	> 100 µM (inactive)	> 100 µM (inactive)	> 100 µM (inactive)	> 100 µM (inactive)	> 100 µM (inactive)	> 100 µM (inactive)	> 100 µM (inactive)	> 100 µM (inactive)	> 100 µM (inactive)	> 100 µM (inactive)
COc1cc2c(NCCCCCO)ncnc2c(OC)c1OC	> 100 µM (inactive)	> 100 µM (inactive)	> 100 µM (inactive)	> 100 µM	> 63 µM (inactive)	> 100 µM (inactive)	> 100 µM (inactive)	> 84.7 µM (inactive)	> 100 µM (inactive)	> 100 µM (inactive)	> 93.3 µM (inactive)	> 100 µM (inactive)	> 100 µM (inactive)	> 100 µM (inactive)	> 100 µM (inactive)	> 100 µM (inactive)	> 100 µM (inactive)	> 100 µM (inactive)	> 85.9 µM (inactive)
O=P(Nc1ccccc1)(Oc1ccccc1)N1CCN(c2ccccc2)CC1 (centres undefined)	18 µM (inactive)	17.8 µM (inactive)	19.7 µM (inactive)	13.8 µM	17.2 µM (inactive)	16 µM (inactive)	25.5 µM (inactive)	19.4 µM (inactive)	19.6 µM (inactive)	17.2 µM (inactive)	26.3 µM (inactive)	17.4 µM (inactive)	16.8 µM (inactive)	18.2 µM (inactive)	4.85 µM (inactive)	19.6 µM (inactive)	16.3 µM (inactive)	18.4 µM (inactive)	14.9 µM (inactive)
O=C1C(NS(=O)(=O)c2ccccc2)=C(n2cnc3ccccc32)C(=O)c2ccccc21	32.4 µM (inactive)	> 100 µM (inactive)	> 100 µM (inactive)	> 100 µM	> 100 µM (inactive)	4.66 µM (inactive)	34.5 µM (inactive)	> 100 µM (inactive)	> 100 µM (inactive)	> 100 µM (inactive)	85.9 µM (inactive)	> 100 µM (inactive)	> 100 µM (inactive)	16 µM (inactive)	0.187 µM (active)	> 100 µM (inactive)	> 100 µM (inactive)	57.4 µM (inactive)	75.3 µM (inactive)
